Legend:
[1] = target: T1, hERG potassium channel (Homo sapiens, UniProt Q12809); experiment: hERG screening assay (PatchXpress patch clamp, CHO cells); assay type: cell-based; details: CHO cells expressing hERG
T1 construct: expressed in transfected cells; host or cells: CHO (Chinese Hamster Ovary)
Method: Compounds were screened to test their activity in blocking the hERG potassium channel. The hERG channel is heterologously expressed in a CHO (Chinese Hamster Ovary) cell line. Cells were maintained with standard tissue culture procedures and stable channel expression was maintained with 500 μg/ml G418 in the culture medium. Cells were harvested for testing on the PatchXpress automated patch clamp with Accumax (Innovative Cell Technologies, San Diego, Calif.) to isolate single cells.
The following solutions were used for electrophysiological recordings. The external solution contained: 2 mM CaCl2; 2 mM MgCl2; 4 mM KCl; 150 mM NaCl; 10 mM Glucose; 10 mM HEPES (pH 7.4 with 1M NaOH, osmolarity). The internal solution contained: 140 mM KCl, 10 mM MgCl2, 6 mM EGTA, 5 mM HEPES, 5 mM ATP (pH adjusted to 7.25 with KOH).
hERG channels were activated when the voltage was stepped to +20 mV from the −80 mV holding potential. During a 5 second step at +20 mV, the channels activated and then largely inactivated, so the currents were relatively small. Upon returning to −50 mV from +20 mV, hERG currents transiently became much larger as inactivation was rapidly removed and then the channel closed. The first step to −50 mV for 300 ms was used as a baseline for measuring the peak amplitude during the step to −50 mV after channel activation. The peak current at −50 mV was measured both under control conditions and after addition of compound.
All compounds were prepared as 10 mM DMSO stocks in glass vials. Stock solutions were mixed by vigorous vortexing and sonication for about 2 minutes at room temperature. For testing, compounds were diluted in glass vials using an intermediate dilution step in pure DMSO and then further diluted to working concentrations in external solution. Dilutions were prepared no longer than 20 minutes before use.
After achieving the whole-cell configuration, cells were monitored for 90 seconds to assess stability and washed with external solution for 66 seconds. The voltage protocol described above was then applied to the cells every 12 seconds and throughout the whole procedure. Only cells with stable recording parameters and meeting specified health criteria were allowed to enter the compound addition procedure.
External solution containing 0.1% DMSO (vehicle) was applied to the cells first to establish the control peak current amplitude. After allowing the current to stabilize for […], 1 μM and then 10 μM test compounds were applied. Each compound concentration was added 4 times and cells were kept in test solution until the effect of the compound reached steady state or for a maximum of 12 minutes. After addition of test compound, a positive control (1 μM Cisapride) was added, and must block >95% of the current for the experiment to be considered valid. Washout in the external solution compartment was performed until the recovery of the current reached steady state. Data was analyzed using DataXpress, Clampfit (Molecular Devices, Inc., Sunnyvale) and Origin 7 (Originlab Corp.)

[2] = target: T2, wild-type human cardiac sodium channel, hNav1.5 (Homo sapiens, UniProt Q14524); experiment: Late INa screening assay (PatchXpress whole cell patch clamp); assay type: cell-based; details: HEK293 hNav1.5
T2 construct: host or cells: HEK293
T2 sequence (Q14524 whole entry): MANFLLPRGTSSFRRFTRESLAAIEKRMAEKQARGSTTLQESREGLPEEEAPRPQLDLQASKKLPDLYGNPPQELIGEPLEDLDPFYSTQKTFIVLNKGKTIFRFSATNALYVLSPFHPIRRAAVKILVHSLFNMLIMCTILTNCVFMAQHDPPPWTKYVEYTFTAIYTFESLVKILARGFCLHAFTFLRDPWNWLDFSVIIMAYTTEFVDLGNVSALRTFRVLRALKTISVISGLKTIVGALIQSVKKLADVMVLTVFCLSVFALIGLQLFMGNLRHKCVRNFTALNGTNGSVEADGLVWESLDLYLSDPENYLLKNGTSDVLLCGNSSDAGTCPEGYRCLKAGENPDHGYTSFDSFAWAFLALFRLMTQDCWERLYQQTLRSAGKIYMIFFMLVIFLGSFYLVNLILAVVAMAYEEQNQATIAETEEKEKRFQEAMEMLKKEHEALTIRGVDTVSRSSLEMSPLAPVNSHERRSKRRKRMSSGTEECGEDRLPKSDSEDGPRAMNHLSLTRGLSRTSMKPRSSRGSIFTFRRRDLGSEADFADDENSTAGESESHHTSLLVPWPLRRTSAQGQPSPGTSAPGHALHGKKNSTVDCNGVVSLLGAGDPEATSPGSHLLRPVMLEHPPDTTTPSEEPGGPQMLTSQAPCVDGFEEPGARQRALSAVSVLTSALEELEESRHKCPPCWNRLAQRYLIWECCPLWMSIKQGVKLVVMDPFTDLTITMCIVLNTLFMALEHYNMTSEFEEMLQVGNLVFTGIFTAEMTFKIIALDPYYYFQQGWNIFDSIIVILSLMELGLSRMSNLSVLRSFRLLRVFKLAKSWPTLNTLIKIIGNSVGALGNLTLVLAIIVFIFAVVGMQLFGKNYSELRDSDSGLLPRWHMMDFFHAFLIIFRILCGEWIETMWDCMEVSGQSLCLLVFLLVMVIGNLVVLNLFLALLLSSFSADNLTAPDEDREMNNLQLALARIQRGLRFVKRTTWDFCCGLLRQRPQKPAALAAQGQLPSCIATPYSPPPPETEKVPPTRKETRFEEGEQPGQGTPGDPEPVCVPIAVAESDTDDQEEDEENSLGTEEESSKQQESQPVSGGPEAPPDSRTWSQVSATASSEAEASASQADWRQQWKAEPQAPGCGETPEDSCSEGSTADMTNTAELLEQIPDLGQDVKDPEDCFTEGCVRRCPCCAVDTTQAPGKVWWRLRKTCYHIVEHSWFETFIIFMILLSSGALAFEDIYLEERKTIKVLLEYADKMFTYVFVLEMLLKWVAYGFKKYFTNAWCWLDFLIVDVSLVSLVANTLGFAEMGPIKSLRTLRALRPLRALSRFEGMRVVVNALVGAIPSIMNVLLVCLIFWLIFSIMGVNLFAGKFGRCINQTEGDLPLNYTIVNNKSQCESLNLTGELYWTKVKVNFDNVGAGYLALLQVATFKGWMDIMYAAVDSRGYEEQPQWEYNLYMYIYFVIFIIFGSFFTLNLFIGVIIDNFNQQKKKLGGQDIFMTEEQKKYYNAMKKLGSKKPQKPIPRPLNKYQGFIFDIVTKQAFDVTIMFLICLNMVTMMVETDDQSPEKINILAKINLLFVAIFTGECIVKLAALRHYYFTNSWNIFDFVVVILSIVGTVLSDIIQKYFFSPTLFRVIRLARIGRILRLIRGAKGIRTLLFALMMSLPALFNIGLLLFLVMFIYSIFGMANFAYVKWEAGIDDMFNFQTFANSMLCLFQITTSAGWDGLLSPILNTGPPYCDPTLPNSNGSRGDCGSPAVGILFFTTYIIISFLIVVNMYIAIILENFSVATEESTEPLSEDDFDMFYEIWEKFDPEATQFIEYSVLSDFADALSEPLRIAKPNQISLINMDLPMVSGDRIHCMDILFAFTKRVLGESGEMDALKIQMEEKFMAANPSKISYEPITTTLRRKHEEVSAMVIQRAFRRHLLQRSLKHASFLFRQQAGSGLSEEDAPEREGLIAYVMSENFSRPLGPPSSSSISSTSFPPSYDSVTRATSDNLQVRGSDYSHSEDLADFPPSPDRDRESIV
Method: The late sodium current (Late INa) and peak sodium current (Peak INa) assays were performed on an automated electrophysiology platform, PatchXpress 7000A (MDS Analytical Technologies, Sunnyvale, Calif.), using the whole cell patch clamp technique to measure currents through the cell membrane of up to 16 cells at a time. The assay used an HEK293 (human embryonic kidney) cell line heterologously expressing the wild-type human cardiac sodium channel, hNav1.5, purchased from Millipore (Billerica, Mass.). No beta subunits were coexpressed with the Na channel alpha subunit. Cells were maintained with standard tissue culture procedures, and stable channel expression was maintained with 400 μg/ml Geneticin in the culture medium. Cells isolated for use on PatchXpress were incubated for 5 minutes in Versene 1× and then for 2 minutes in 0.0125% Trypsin-EDTA (both at 37° C.) to ensure that 80-90% of the cells are single and not part of a cell cluster. Experiments were carried out at 24-27° C.
For both the Late INa and Peak INa assays, series resistance compensation was set to 50% and whole-cell compensation was performed automatically. Currents were low-pass filtered at 10 kHz and digitized at 31.25 kHz. Currents through open sodium channels were automatically recorded and stored in the DataXpress2 database (MDS Analytical Technologies, Sunnyvale, Calif.). Analysis was performed using DataXpress2 analysis software and data are compiled in Excel.
Compound stocks were routinely made in glass vials to 10 mM in dimethyl sulfoxide (DMSO). In some cases, when compounds were not soluble in DMSO, they are made in 100% ethanol. Stocks were sonicated as necessary. The extracellular solution for screening Late INa was composed of: 140 mM NaCl, 4 mM KCl, 1.8 mM CaCl2, 0.75 mM MgCl2, and 5 mM HEPES with pH adjusted to 7.4 using NaOH. The extracellular solution for screening Peak INa was composed of: 20 mM NaCl, 120 mM N-methyl-D glucamine, 4 mM KCl, 1.8 mM CaCl2, 0.75 mM MgCl2, and 5 mM HEPES with pH adjusted to 7.4 using HCl. The intracellular solution used to perfuse the inside of the cells for both the Late INa and Peak INa assays contained: 120 mM CsF, 20 mM CsCl, 5 mM EGTA, 5 mM HEPES and pH adjusted to 7.4 with CsOH. Compounds were diluted in extracellular solution to […] in glass vials and then transferred to glass well plates before robotic addition to the cells. The 0Na extracellular solution used at the end of each experiment for the Late INa and Peak INa assays to measure baseline current contained: 140 mM N-methyl-D-glucamine; 4 mM KCl; 1.8 mM CaCl2; 0.75 mM MgCl2; 5 mM HEPES and pH was adjusted to 7.4 with HCl.
For the Late INa assay, sodium channels were activated every 10 seconds (0.1 Hz) by depolarizing the cell membrane to −20 mV for 250 milliseconds (ms) from a holding potential of −120 mV. In response to a −20 mV voltage step, typical Nav1.5 sodium currents activated rapidly to a peak negative current and then inactivated nearly completely within 3-4 ms.
All compounds were tested to determine their activity in blocking the late sodium current. Late INa current was generated by adding 10 μM Tefluthrin (pyrethroid) to the extracellular solution while recording Na currents. For some experiments, 50 nM ATX II (sea anemone toxin), another late INa activator, was used to generate the late component. Both activators generated late components that are large, and thus block of the late component by compounds could be measured easily. For the purposes of the screening, late INa is defined as the mean current between 225 ms and 250 ms after stepping to −20 mV to activate Na channels. After establishing the whole cell recording configuration, late INa activators were added to each well 4 times over a 16-17 minute period so that the late component of the Na current reached a stable value. Compounds were then added (typically at 10 μM), in the presence of late INa activator, with 3 additions over the course of 7 or 8 minutes. […]

T1 sequence (Q12809 whole entry): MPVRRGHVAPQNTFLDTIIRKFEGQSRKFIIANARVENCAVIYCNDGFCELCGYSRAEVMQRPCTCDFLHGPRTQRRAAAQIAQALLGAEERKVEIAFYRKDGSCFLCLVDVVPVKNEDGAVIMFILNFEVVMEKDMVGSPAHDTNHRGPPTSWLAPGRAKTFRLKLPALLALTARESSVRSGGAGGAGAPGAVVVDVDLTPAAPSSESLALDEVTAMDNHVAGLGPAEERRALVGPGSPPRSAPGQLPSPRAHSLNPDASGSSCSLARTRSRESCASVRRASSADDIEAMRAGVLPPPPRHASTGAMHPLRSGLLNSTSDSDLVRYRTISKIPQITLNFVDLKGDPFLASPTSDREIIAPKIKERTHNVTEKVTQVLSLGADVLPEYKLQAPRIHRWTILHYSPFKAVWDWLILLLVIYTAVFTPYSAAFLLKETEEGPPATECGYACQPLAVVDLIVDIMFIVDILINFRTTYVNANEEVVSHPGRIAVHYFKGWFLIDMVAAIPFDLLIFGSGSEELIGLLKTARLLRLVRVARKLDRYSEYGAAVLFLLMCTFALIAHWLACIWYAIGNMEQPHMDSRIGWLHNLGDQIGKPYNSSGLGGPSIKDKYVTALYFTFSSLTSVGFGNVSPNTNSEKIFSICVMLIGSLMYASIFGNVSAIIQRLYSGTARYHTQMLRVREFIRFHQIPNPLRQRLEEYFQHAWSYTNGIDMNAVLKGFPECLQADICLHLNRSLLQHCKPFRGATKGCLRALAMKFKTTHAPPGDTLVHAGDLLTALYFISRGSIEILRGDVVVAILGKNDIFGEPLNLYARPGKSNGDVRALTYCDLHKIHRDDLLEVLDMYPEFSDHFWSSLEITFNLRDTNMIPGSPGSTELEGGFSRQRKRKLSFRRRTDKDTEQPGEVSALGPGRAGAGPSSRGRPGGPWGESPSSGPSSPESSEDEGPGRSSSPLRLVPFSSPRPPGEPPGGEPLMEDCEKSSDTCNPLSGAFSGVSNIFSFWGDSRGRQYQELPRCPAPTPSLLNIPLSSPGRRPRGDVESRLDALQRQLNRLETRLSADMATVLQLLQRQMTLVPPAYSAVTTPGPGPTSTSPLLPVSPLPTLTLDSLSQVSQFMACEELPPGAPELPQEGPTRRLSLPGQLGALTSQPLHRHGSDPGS

## Cn1c(=O)c(C(C)(C)C)nc2ccc(-c3cccc(OC(F)(F)F)c3)cc21 [3-tert-butyl-1-methyl-7-[3-(trifluoromethoxy)phenyl] quinoxalin-2(1H)-one]
[1]; compound at 1 uM
  HERG 1 uM (block of hERG current): 10.0%
[1]; compound at 10 uM
  HERG 10 uM (block of hERG current): 10.0%
[2]; compound at 1 uM
  Late INa 1 uM (percent block of late INa): 51.3%
[2]; compound at 10 uM, late INa generated with Tefluthrin or ATX II, read-out: Late INa 10 uM (percent block of late INa)
  inhibition at 10 µM: 77.5%
